From US20250235543A1, “MODIFIED PROTEINS AND PROTEIN DEGRADERS” (Cullgen (Shanghai), Inc., priority 2021, published 2025) come the findings set out here.

pIC50: −log10 of the molar value.

Common to all, as to assay type: cell-based
One test has as its system MDA-MB-453. In words: Cell viability assay, MDA-MB-453. The settings on record: Homo sapiens, 72 h; MDA-MB-453, TNBC, 3 days; read-out: Cellular Anti-proliferation activity (IC50). As to the method: (§1) Cells were treated with CDK4/6 inhibitors palbociclib, ribociclib, or abemaciclib, or heterobifunctional compounds CPD-002 or CPD-031 following a 9-point serial dilution for 3 days.
(§2) Cells were seeded at a density of 2,000-5,000 cells per well in 96-well assay plates and treated with test compounds following a 10-point serial dilution for 3-6 days. Cell viability was determined using the CellTiter-Lumi assay kit according to the manufacturer's instructions. The dose-response curves were determined and IC50 values were calculated using the GraphPad Prism software following a nonlinear regression (least squares fit) method. Data presented was mean±standard deviation (SD) unless otherwise indicated.

Another test concerns MIA PaCa-2. In words: Cell viability assay, MIA PaCa-2. The settings on record: Homo sapiens, 72 h; MIA PaCa-2, PC, 3 days; read-out: Cellular Anti-proliferation activity (IC50). As to the method:
as §1, §2

For a further test, the system named is OVCAR3. Briefly: Cell viability assay, OVCAR3. The settings on record: Homo sapiens, OVCAR-3, 72 h; OVCAR3, OC, 3 days; read-out: Cellular Anti-proliferation activity (IC50). As for the experimental part: as §1, §2
For another test, the system named is MDA-MB-157. In words: Cell viability assay, MDA-MB-157. The settings on record: Homo sapiens, 72 h; MDA-MB-157, TNBC, 3 days; read-out: Cellular Anti-proliferation activity (IC50). As to the method:
as §1, §2

Another test relates to NCI-H522. In words: Cell viability assay, NCI-H522. The settings on record: Homo sapiens, 72 h; NCI-H522, NSCLC, 3 days; read-out: Cellular Anti-proliferation activity (IC50). As to the method: as §1, §2
The next test concerns MDA-MB-468. Briefly: Cell viability assay, MDA-MB-468. The settings on record: Homo sapiens, 72 h; MDA-MB-468, TNBC, 3 days; read-out: Cellular Anti-proliferation activity (IC50). As to the method: as §1, §2
In a further test the test system is KURAMOCHI
Briefly: Cell viability assay, KURAMOCHI
The settings on record: 72 h, OC, 3 days, read-out: Cellular Anti-proliferation activity (IC50). As for the experimental part:
as §1, §2

The test system of a further test is BT-549. Briefly: Cell viability assay, BT-549. The settings on record: Homo sapiens, 72 h; BT-549, TNBC, 3 days; read-out: Cellular Anti-proliferation activity (IC50). As for the experimental part:
as §1, §2

For a further test, the system named is Hs578T. In words: Cell viability assay, Hs578T. The settings on record: Homo sapiens, Hs-578T, 72 h, TNBC, 3 days, read-out: Cellular Anti-proliferation activity (IC50). As for the experimental part: as §1, §2
A further test relates to Calu-1. In words: Cell viability assay, Calu-1. The settings on record: Homo sapiens, 72 h; Calu-1, NSCLC, 3 days; read-out: Cellular Anti-proliferation activity (IC50). As to the method:
as §1, §2

The subject of a further test is Cal-62. In words: Cell viability assay, Cal-62. The settings on record: Homo sapiens, 72 h; Cal-62, TC, 3 days; read-out: Cellular Anti-proliferation activity (IC50). As to the method: as §1, §2
The next test relates to T47D cells. In words: Flow cytometric analysis of Annexin V/7-AAD stained T47D cells. The settings on record: 6 days. As for the experimental part:
ER^+ breast cancer T47D cells were treated with DMSO, palbociclib, heterobifunctional compound CPD-343, or negative control compound CPD-380 for 6 days at doses approximating IC50 and IC90 concentrations determined in FIGS. 10A and 13. Cells were harvested by trypsinization, staining was carried out using the Annexin V Apoptosis Detection Kit. The percentages of early apoptotic (Annexin V^+7-AAD^−, lower right quadrant), late apoptotic (Annexin V^+7-AAD^+, upper right quadrant) and necrotic cells (Annexin V-7-AAD^+, upper left quadrant) are indicated on dot plots. […] Furthermore, we developed one ER^+ breast cancer T47D model with acquired resistance after long period of treatment with 1 μM palbociclib (over IC90). Cells were deemed resistant when growing in the presence of palbo at the same rate as parental cells. Palbo resistance was determined by CellTiter-Lumi cell viability assay.
(A flow cytometer gives signals particle by particle.)

The next test concerns P300/CBP. In words: P300/CBP cellular protein degradation. A digest of the protocol:
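Treated cells lysed in RIPA buffer with protease and phosphatase inhibitors, protein normalized by BCA assay. P300/CBP levels assessed by SDS-PAGE Western blot with ECL detection and band densitometry.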

As for `CCN1CCN(Cc2ccc(Nc3ncc(F)c(-c4cc(F)c5nc(C)n(C(C)C)c5c4)n3)nc2)CC1` [abemaciclib], the pIC50 in the test with MDA-MB-453 is 7.52; in the test on MIA PaCa-2, 6.26; in the test with OVCAR3 it was less than 5.00; in the test on MDA-MB-157, less than 5.00; in the test on NCI-H522 it was less than 5.52; in the test with MDA-MB-468, 5.51. Moreover, the pIC50 in the test on KURAMOCHI is 5.60; in the test on BT-549 it was 5.68; in the test on Hs578T it was 5.92; with Calu-1, 4.54; in the test on Cal-62 it was 5.67.

`CC(=O)c1c(C)c2cnc(Nc3ccc(N4CCNCC4)cn3)nc2n(C2CCCC2)c1=O` [Palbociclib, palbociclib]: the pIC50 is 5.57 in the test with MDA-MB-453; less than 5.52 in the test on MIA PaCa-2; less than 5.00 with OVCAR3; less than 5.00 in the test with MDA-MB-157; less than 5.00 in the test with NCI-H522; less than 5.00 in the test on MDA-MB-468. The pIC50 in the test with KURAMOCHI, in the test with BT-549, with Hs578T, with Calu-1 and in the test on Cal-62 was less than 5.00 in each case. In addition, the “Annexin V+ population” value with T47D cells (100 nM) worked out at 15.9%; with T47D cells (1 μM), 26.1%.

As for `CC(=O)N1CCc2c(c(N3CCCc4cc(-c5cnn(C)c5)c(C(F)F)cc43)nn2C2CCN(CC(=O)NCCCCCNc3ccc(C(=O)Nc4ncc(C)s4)c(C)c3)CC2)C1` [CPD-192, 4-((5-(2-(4-(5-Acetyl-3-(7-(difluoromethyl)-6-(1-methyl-1H-pyrazol-4-yl)-3,4-dihydroquinolin-1(2H)-yl)-4,5,6,7-tetrahydro-1H-pyrazolo[4,3-c]pyridin-1-yl)piperidin-1-yl)acetamido)pentyl)amino)-2-methyl-N-(5-methylthiazol-2-yl)benzamide], in the test with P300/CBP, the “P300/CBP Degradation (100 nM)” value is “D (degradation activity < 30%)”.

Take `CN(C)C(=O)c1cc2cnc(Nc3ccc(N4CCNCC4)cn3)nc2n1C1CCCC1` [ribociclib]: the pIC50 with MDA-MB-453 is less than 5.52; in the test on MIA PaCa-2, less than 5.52; with OVCAR3 it was less than 5.00; in the test on MDA-MB-157, less than 5.00; with NCI-H522, less than 5.00; in the test on MDA-MB-468, less than 5.00. Also, the pIC50 in the test on KURAMOCHI, with BT-549, with Hs578T, in the test with Calu-1 and with Cal-62 was less than 5.00 throughout.

On to `CC(=O)N1CCc2c(c(N3CCCc4cc(-c5cnn(C)c5)c(C(F)F)cc43)nn2C2CCN(C(=O)CCCCCCC(=O)Nc3ccccc3C(=O)Nc3nc(C)c([N+](=O)[O-])s3)CC2)C1` [CPD-203, 2-(8-(4-(5-Acetyl-3-(7-(difluoromethyl)-6-(1-methyl-1H-pyrazol-4-yl)-3,4-dihydroquinolin-1(2H)-yl)-4,5,6,7-tetrahydro-1H-pyrazolo[4,3-c]pyridin-1-yl)piperidin-1-yl)-8-oxooctanamido)-N-(4-methyl-5-nitrothiazol-2-yl)benzamide], for which the “P300/CBP Degradation (100 nM)” value in the test on P300/CBP was “D (degradation activity < 30%)”.

Take `CC(=O)N1CCc2c(c(N3CCCc4cc(-c5cnn(C)c5)c(C(F)F)cc43)nn2C2CCN(C(=O)CCCCCCCC(=O)Nc3ccccc3C(=O)Nc3nc(C)c([N+](=O)[O-])s3)CC2)C1` [CPD-204, 2-(9-(4-(5-Acetyl-3-(7-(difluoromethyl)-6-(1-methyl-1H-pyrazol-4-yl)-3,4-dihydroquinolin-1(2H)-yl)-4,5,6,7-tetrahydro-1H-pyrazolo[4,3-c]pyridin-1-yl)piperidin-1-yl)-9-oxononanamido)-N-(4-methyl-5-nitrothiazol-2-yl)benzamide]: the “P300/CBP Degradation (100 nM)” value with P300/CBP is “D (degradation activity < 30%)”.

`CC(=O)N1CCc2c(c(N3CCCc4cc(-c5cnn(C)c5)c(C(F)F)cc43)nn2C2CCN(CC(=O)NCCCCCCCCCNc3ccc(C(=O)Nc4ncc(C)s4)c(C)c3)CC2)C1` [CPD-196, 4-((9-(2-(4-(5-Acetyl-3-(7-(difluoromethyl)-6-(1-methyl-1H-pyrazol-4-yl)-3,4-dihydroquinolin-1(2H)-yl)-4,5,6,7-tetrahydro-1H-pyrazolo[4,3-c]pyridin-1-yl)piperidin-1-yl)acetamido)nonyl)amino)-2-methyl-N-(5-methylthiazol-2-yl)benzamide]: the “P300/CBP Degradation (100 nM)” value with P300/CBP is given as “D (degradation activity < 30%)”.

Regarding `CC(=O)N1CCc2c(c(N3CCCc4cc(-c5cnn(C)c5)c(C(F)F)cc43)nn2C2CCN(CC(=O)NCCC(=O)Nc3ccccc3C(=O)Nc3nc(C)c([N+](=O)[O-])s3)CC2)C1` [CPD-210, 2-(3-(2-(4-(5-Acetyl-3-(7-(difluoromethyl)-6-(1-methyl-1H-pyrazol-4-yl)-3,4-dihydroquinolin-1(2H)-yl)-4,5,6,7-tetrahydro-1H-pyrazolo[4,3-c]pyridin-1-yl)piperidin-1-yl)acetamido)propanamido)-N-(4-methyl-5-nitrothiazol-2-yl)benzamide], the “P300/CBP Degradation (100 nM)” value in the test with P300/CBP is given as “D (degradation activity < 30%)”.
